Measurements published in patent US20260206813A1, “COMPOSITION FOR PROMOTING GHRELIN SECRETION” (Meiji Co., Ltd., priority 2022, published 2026).

Test system: mouse stomach-derived ghrelin-secreting cell line MGN3-1
Test: Secretion of active (acylated) ghrelin from MGN3-1 cells, ELISA
Type: cell-based
Conditions: for Acylated ghrelin (% control): 2 hours culture, control = 100; for ghrelin secretion promoting effect: conclusion from Table 3, absence of a gastric lipase
Description: The mouse stomach-derived ghrelin-secreting cell line MGN3-1 was seeded at 1×10^5 cells/well in a 96-well plate and cultured for 24 hours. After culturing, the cells were washed with 200 μL of Dulbecco's PBS, and 100 μL of each solution containing one test substance as indicated in Table 1 (buffer solution: 50 μM sodium octanoate/DMEM) was added (test group). The concentration of the test substance was applied at 10 μM or 30 μM. In the control group, 100 μL of a buffer solution without test substance was added. The number of trials performed, n, for each group was 4. After each group was cultured for 2 hours, a culture solution was recovered and centrifuged (800 g, 5 minutes, 4° C.) to obtain 80 μL of a supernatant. The supernatant was added with 8 μL of 1 N HCl and stored at −80° C. Next, active ghrelin (acylated ghrelin) in the sample was measured by the ELISA method (Ghrelin (Acylated) EIA Kit A05117, Bertin Pharma). Average values of measured values of the concentrations of ghrelin secreted when the test substances as indicated in Table 2 or Table 3 were added were calculated and indicated as values (%) assuming that the value of the control is 100 (Tables 2 and 3). The test was conducted again using the same testing method as described above, and the concentration of active ghrelin (acylated ghrelin) secreted in the sample was measured (FIGS. 2 and 3).
Statistical analysis was performed using a t-test or one-way ANOVA (one-way analysis of variance), and a multiple comparison test was conducted using the Tukey-Kramer test.

[1] = Table 3, test substance 30 μM, n=4
[2] = Table 2, test substance 10 μM, n=4
[3] = Table 2, test substance 30 μM, n=4

SMILES | Acylated ghrelin (% control) [1] [% control] | ghrelin secretion promoting effect (30 μM) | Acylated ghrelin (% control) [2] [% control] | Acylated ghrelin (% control) [3] [% control] | also measured
CCCCCCCC/C=C\CCCCCCCC(=O)OC(CO)COC(=O)CCCCCCCCCCCCCCC (centres unmarked) [Test substance 8, 1-Palmitoyl-2-oleoylglycerol] | 206 | ghrelin secretion promoting effect | – | – | –
CCCCCCCCCCCCCCCC(=O)O [Test substance 1, Palmitic acid, reference compound] | – | – | 82 | 107 | difference of acylated ghrelin from the control (Table 2, concentration not stated (10 μM and 30 μM tested)): no differences
CCCCCCCC/C=C\CCCCCCCC(=O)OCC(O)CO (centres unmarked) [Test substance 5, 1-Monoolein] | 388 | – | 177 | 209 | –
CCCCCCCCCCCCCCCC(=O)OCC(O)CO (centres unmarked) [Test substance 3, 1-Monopalmitin] | – | – | 105 | 134 | difference of acylated ghrelin from the control (Table 2, 10 μM): no differences; acylated ghrelin concentration as compared with the control (Table 2, printed 30 M): increase
CCCCCCCC/C=C\CCCCCCCC(=O)OCC(CO)OC(=O)CCCCCCCCCCCCCCC (centres unmarked) [Test substance 7, 1-Oleoyl-2-palmitoylglycerol] | 237 | ghrelin secretion promoting effect | – | – | –
CCCCCCCC/C=C\CCCCCCCC(=O)O [Test substance 2, Oleic acid] | – | – | 146 | 138 | –
CCCCCCCC/C=C\CCCCCCCC(=O)OCC(COC(=O)CCCCCCC/C=C\CCCCCCCC)OC(=O)CCCCCCCCCCCCCCC [Test substance 9, 1,3-Dioleoyl-2-palmitoylglycerol] | 116 | ghrelin secretion promoting effect | – | – | acylated ghrelin concentration as compared with the control (summary of Table 3, 30 μM): increased
CCCCCCCC/C=C\CCCCCCCC(=O)OC(CO)CO [Test substance 6, 2-Monoolein] | 336 | – | 193 | 206 | –
CCCCCCCCCCCCCCCC(=O)OC(CO)CO [Test substance 4, 2-Monopalmitin] | 389 | – | 168 | 218 | increase of acylated ghrelin concentration as compared with the control (FIG. 1, repeat test, 30 μM, n=4, significant (p<0.05)): about 1.2 times
CCCCCCCC/C=C\CCCCCCCC(=O)OC(COC(=O)CCCCCCCCCCCCCCC)COC(=O)CCCCCCCCCCCCCCC [Test substance 10, 1,3-Dipalmitoyl-2-oleoylglycerol] | 138 | ghrelin secretion promoting effect | – | – | acylated ghrelin concentration as compared with the control (summary of Table 3, 30 μM): increased
